Measured values from patent US12577206B2 (BRISTOL-MYERS SQUIBB COMPANY, priority 2020, dated 2026).

How the values were obtained:
human FPR2 = target: T1, human FPR2 (Homo sapiens, UniProt P25090); assay: FPR2 cyclic adenosine monophosphate (cAMP) assay; assay type: cell-based; details: CHO cells overexpressing human FPR2; forskolin 5 μM; inhibition of cAMP production; HTRF; read-out: hFPR2 cAMP2 EC50
T1 sequence (P25090 1-351): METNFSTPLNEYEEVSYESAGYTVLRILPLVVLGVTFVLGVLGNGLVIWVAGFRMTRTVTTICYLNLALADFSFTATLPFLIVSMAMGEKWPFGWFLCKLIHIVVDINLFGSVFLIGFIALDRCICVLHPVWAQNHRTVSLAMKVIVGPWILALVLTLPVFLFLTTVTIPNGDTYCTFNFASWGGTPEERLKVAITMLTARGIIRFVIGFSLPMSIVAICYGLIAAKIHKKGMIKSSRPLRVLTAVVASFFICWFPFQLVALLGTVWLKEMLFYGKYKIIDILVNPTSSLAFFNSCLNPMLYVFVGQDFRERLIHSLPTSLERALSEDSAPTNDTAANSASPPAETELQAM
In short: (§1)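 CHO cells overexpressing human FPR1 (4,000/well) or FPR2 (2,000/well) were incubated 30 min at room temperature with compound (0.020 nM to 100 μM, 1% DMSO), IBMX 200 μM, and forskolin at 10 μM (FPR1) or 5 μM (FPR2), all final. HTRF cAMP read-out; inhibition fitted by 4-parameter logistic equation.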

human FPR1 = target: T2, human FPR1 (Homo sapiens, UniProt P21462); assay: FPR1 cyclic adenosine monophosphate (cAMP) assay; assay type: cell-based; details: CHO cells overexpressing human FPR1; forskolin 10 μM; inhibition of cAMP production; HTRF; read-out: hFPR1 cAMP2 EC50
T2 sequence (P21462 1-350): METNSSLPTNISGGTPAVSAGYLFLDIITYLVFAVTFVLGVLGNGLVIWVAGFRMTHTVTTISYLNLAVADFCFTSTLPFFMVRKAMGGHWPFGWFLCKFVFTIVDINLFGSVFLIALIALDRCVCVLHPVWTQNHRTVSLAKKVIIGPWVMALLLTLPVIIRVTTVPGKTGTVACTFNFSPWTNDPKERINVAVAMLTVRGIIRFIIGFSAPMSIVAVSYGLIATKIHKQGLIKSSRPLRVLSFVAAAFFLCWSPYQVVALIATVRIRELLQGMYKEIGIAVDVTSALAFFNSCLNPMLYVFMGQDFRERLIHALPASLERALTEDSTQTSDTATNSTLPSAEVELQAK
In short: as §1

Structure (SMILES)	EC50 (human FPR2) [nM]	EC50 (human FPR1) [nM]
COc1cc(F)c(-c2c(NC(=O)c3ccc(OC(F)F)cc3)c(=O)n(Cc3nnc(C(C)C)o3)n2C)c(F)c1 [Example 57, N-[5-(2,6-difluoro-4-methoxyphenyl)-1-methyl-3-oxo-2-{[5-(propan-2-yl)-1,3,4-oxadiazol-2-yl]methyl}-2,3-dihydro-1H-pyrazol-4-yl]-4-(difluoromethoxy)benzamide]	150	380
COc1cc(F)c(-c2c(NC(=O)c3ccc(OC(F)F)cc3)c(=O)n(CCO)n2C)c(F)c1 [Example 58, N-[5-(2,6-difluoro-4-methoxyphenyl)-2-(2-hydroxyethyl)-1-methyl-3-oxo-2,3-dihydro-1H-pyrazol-4-yl]-4-(difluoromethoxy)benzamide]	230	> 10000
COc1cc(F)c(-c2c(NC(=O)c3ccc(OC(F)(F)F)cc3)c(=O)n(-c3cc(C(F)(F)F)ccn3)n2C)c(F)c1 [Example 63, N-[5-(2,6-difluoro-4-methoxyphenyl)-1-methyl-3-oxo-2-[4-(trifluoromethyl)pyridin-2-yl]-2,3-dihydro-1H-pyrazol-4-yl]-4-(trifluoromethoxy)benzamide]	7	> 10000
COc1cc(F)c(-c2c(NC(=O)c3ccc(OC(F)F)cc3)c(=O)n(-c3cnc4ccccc4n3)n2C)c(F)c1 [Example 64, N-[5-(2,6-difluoro-4-methoxyphenyl)-1-methyl-3-oxo-2-(quinoxalin-2-yl)-2,3-dihydro-1H-pyrazol-4-yl]-4-(difluoromethoxy)benzamide]	11	800
COc1cc(F)c(-c2c(NC(=O)c3ccc(OC(F)F)cc3)c(=O)n(-c3cccc(C(F)F)n3)n2C)c(F)c1 [Example 67, N-[5-(2,6-difluoro-4-methoxyphenyl)-2-[6-(difluoromethyl)pyridin-2-yl]-1-methyl-3-oxo-2,3-dihydro-1H-pyrazol-4-yl]-4-(difluoromethoxy)benzamide]	9	3400
COc1cc(F)c(-c2c(NC(=O)c3ccc(OC(F)F)cc3)c(=O)n(-c3cccc(-n4ccc(C)n4)n3)n2C)c(F)c1 [Example 69, N-[5-(2,6-difluoro-4-methoxyphenyl)-1-methyl-2-[6-(3-methyl-1H-pyrazol-1-yl)pyridin-2-yl]-3-oxo-2,3-dihydro-1H-pyrazol-4-yl]-4-(difluoromethoxy)benzamide]	5	5
COc1cc(F)c(-c2c(NC(=O)c3ccc(OC(F)(F)F)cc3)c(=O)n(-c3cccc(-n4ccc(C)n4)n3)n2C)c(F)c1 [Example 70, N-[5-(2,6-difluoro-4-methoxyphenyl)-1-methyl-2-[6-(3-methyl-1H-pyrazol-1-yl)pyridin-2-yl]-3-oxo-2,3-dihydro-1H-pyrazol-4-yl]-4-(trifluoromethoxy)benzamide]	3	5
COc1cc(F)c(-c2c(NC(=O)c3ccc(OC(F)F)cc3)c(=O)n(-c3cccc(-c4ccccc4)n3)n2C)c(F)c1 [Example 72, N-[5-(2,6-difluoro-4-methoxyphenyl)-1-methyl-3-oxo-2-(6-phenylpyridin-2-yl)-2,3-dihydro-1H-pyrazol-4-yl]-4-(difluoromethoxy)benzamide]	2.7	180
COc1cc(F)c(-c2c(NC(=O)c3ccc(OC(F)(F)F)cc3)c(=O)n(-c3cccc(OC)n3)n2C)c(F)c1 [Example 74, N-[5-(2,6-difluoro-4-methoxyphenyl)-2-(6-methoxypyridin-2-yl)-1-methyl-3-oxo-2,3-dihydro-1H-pyrazol-4-yl]-4-(trifluoromethoxy)benzamide]	6	820
COc1cc(F)c(-c2c(NC(=O)c3ccc(OC(F)F)cc3)c(=O)n(-c3cccc(OC)n3)n2C)c(F)c1 [Example 75, N-[5-(2,6-difluoro-4-methoxyphenyl)-2-(6-methoxypyridin-2-yl)-1-methyl-3-oxo-2,3-dihydro-1H-pyrazol-4-yl]-4-(difluoromethoxy)benzamide]	7	2300
CCOc1ccnc(-n2c(=O)c(NC(=O)c3ccc(OC(F)F)cc3)c(-c3c(F)cc(OC)cc3F)n2C)c1 [Example 78, N-[5-(2,6-difluoro-4-methoxyphenyl)-2-(4-ethoxypyridin-2-yl)-1-methyl-3-oxo-2,3-dihydro-1H-pyrazol-4-yl]-4-(difluoromethoxy)benzamide]	10	9500

Further molecules by falling EC50 (human FPR2), results first:

EC50 (human FPR2) [nM]	EC50 (human FPR1) [nM]	Structure (SMILES)
20	2600	COc1cc(F)c(-c2c(NC(=O)c3ccc(OC(F)F)cc3)c(=O)n(-c3cncc(OC)n3)n2C)c(F)c1 [Example 71, N-[5-(2,6-difluoro-4-methoxyphenyl)-2-(6-methoxypyrazin-2-yl)-1-methyl-3-oxo-2,3-dihydro-1H-pyrazol-4-yl]-4-(difluoromethoxy)benzamide]
17	620	COc1cc(F)c(-c2c(NC(=O)c3ccc(OC(F)F)cc3)c(=O)n(-c3cc(OC)c(C)cn3)n2C)c(F)c1 [Example 77, N-[5-(2,6-difluoro-4-methoxyphenyl)-2-(4-methoxy-5-methylpyridin-2-yl)-1-methyl-3-oxo-2,3-dihydro-1H-pyrazol-4-yl]-4-(difluoromethoxy)benzamide]
13	950	COc1cc(F)c(-c2c(NC(=O)c3ccc(OC(F)(F)F)cc3)c(=O)n(-c3cccc(-c4ccccc4)n3)n2C)c(F)c1 [Example 73, N-[5-(2,6-difluoro-4-methoxyphenyl)-1-methyl-3-oxo-2-(6-phenylpyridin-2-yl)-2,3-dihydro-1H-pyrazol-4-yl]-4-(trifluoromethoxy)benzamide]
11	1600	COc1cc(F)c(-c2c(NC(=O)c3ccc(OC(F)F)cc3)c(=O)n(-c3cncc(C)n3)n2C)c(F)c1 [Example 61, N-[5-(2,6-difluoro-4-methoxyphenyl)-1-methyl-2-(6-methylpyrazin-2-yl)-3-oxo-2,3-dihydro-1H-pyrazol-4-yl]-4-(difluoromethoxy)benzamide]
8	> 10000	COc1ccnc(-n2c(=O)c(NC(=O)c3ccc(OC(F)F)cc3)c(-c3c(F)cc(OC)cc3F)n2C)c1 [Example 59, N-[5-(2,6-difluoro-4-methoxyphenyl)-2-(4-methoxypyridin-2-yl)-1-methyl-3-oxo-2,3-dihydro-1H-pyrazol-4-yl]-4-(difluoromethoxy)benzamide]
8	> 10000	COc1cc(F)c(-c2c(NC(=O)c3ccc(OC(F)F)cc3)c(=O)n(-c3cc(C)cc(C)n3)n2C)c(F)c1 [Example 65, N-[5-(2,6-difluoro-4-methoxyphenyl)-2-(4,6-dimethylpyridin-2-yl)-1-methyl-3-oxo-2,3-dihydro-1H-pyrazol-4-yl]-4-(difluoromethoxy)benzamide]
8	2500	COc1cc(F)c(-c2c(NC(=O)c3ccc(OC(F)(F)F)cc3)c(=O)n(-c3cc(C)cc(C)n3)n2C)c(F)c1 [Example 66, N-[5-(2,6-difluoro-4-methoxyphenyl)-2-(4,6-dimethylpyridin-2-yl)-1-methyl-3-oxo-2,3-dihydro-1H-pyrazol-4-yl]-4-(trifluoromethoxy)benzamide]
8	1000	COc1cc(F)c(-c2c(NC(=O)c3ccc(OC(F)(F)F)cc3)c(=O)n(-c3cccc(C(F)F)n3)n2C)c(F)c1 [Example 68, N-[5-(2,6-difluoro-4-methoxyphenyl)-2-[6-(difluoromethyl)pyridin-2-yl]-1-methyl-3-oxo-2,3-dihydro-1H-pyrazol-4-yl]-4-(trifluoromethoxy)benzamide]
7	> 10000	COc1cc(F)c(-c2c(NC(=O)c3ccc(OC(F)(F)F)cc3)c(=O)n(-c3ncccc3C#N)n2C)c(F)c1 [Example 56, N-[2-(3-cyanopyridin-2-yl)-5-(2,6-difluoro-4-methoxyphenyl)-1-methyl-3-oxo-2,3-dihydro-1H-pyrazol-4-yl]-4-(trifluoromethoxy)benzamide]
6	> 10000	COc1cc(F)c(-c2c(NC(=O)c3ccc(OC(F)F)cc3)c(=O)n(-c3cc(C(F)(F)F)ccn3)n2C)c(F)c1 [Example 62, N-[5-(2,6-difluoro-4-methoxyphenyl)-1-methyl-3-oxo-2-[4-(trifluoromethyl)pyridin-2-yl]-2,3-dihydro-1H-pyrazol-4-yl]-4-(difluoromethoxy)benzamide]
3	210	COc1cc(F)c(-c2c(NC(=O)c3ccc(OC(F)F)cc3)c(=O)n(-c3ccc4ccccc4n3)n2C)c(F)c1 [Example 60, N-[5-(2,6-difluoro-4-methoxyphenyl)-1-methyl-3-oxo-2-(quinolin-2-yl)-2,3-dihydro-1H-pyrazol-4-yl]-4-(difluoromethoxy)benzamide]
